Source: PubChem BioAssay AID1845194 (Molecular Pharmacology Branch, DTP, NCI, 2023)
Where “and” joins values, the source holds several entries; their conditions need not be identical. Identical values can stand only once.

System: 287954-098-R-J1 tumor spheroid viability
Test: Anticancer human tumor 287954-098-R-J1 patient-derived Ewing sarcoma cell line growth inhibition
Settings: spheroids with HUVEC and MSC; for viability, T/C: stronger effect = lower value
Outline: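 Complex tumor spheroids combined malignant cells with endothelial cells and mesenchymal stem cells. DNA-damaging drugs and DNA repair inhibitors were tested alone and in combination, at half-log dilutions down from clinical Cmax (top 10 microM if Cmax unknown), 0.25% DMSO final.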

[1] = curve of first compound, second compound 1 µM
[2] = curve of first compound, second compound 3.16 µM
[3] = curve of first compound, second compound 10 µM
[4] = curve of first compound, second compound 31.6 µM
[5] = curve of first compound, second compound 100 µM
[6] = second compound 1 µM, first compound 0.0316 µM
[7] = second compound 1 µM, first compound 0.1 µM
[8] = second compound 1 µM, first compound 0.316 µM
[9] = second compound 1 µM, first compound 1 µM
[10] = second compound 1 µM, first compound 3.16 µM
[11] = second compound 1 µM, first compound 10 µM
[12] = second compound 3.16 µM, first compound 0.0316 µM
[13] = second compound 3.16 µM, first compound 0.1 µM
[14] = second compound 3.16 µM, first compound 0.316 µM
[15] = second compound 3.16 µM, first compound 1 µM
[16] = second compound 3.16 µM, first compound 3.16 µM
[17] = second compound 3.16 µM, first compound 10 µM
[18] = second compound 10 µM, first compound 0.0316 µM
[19] = second compound 10 µM, first compound 0.1 µM
[20] = second compound 10 µM, first compound 0.316 µM
[21] = second compound 10 µM, first compound 1 µM
[22] = second compound 10 µM, first compound 3.16 µM
[23] = second compound 10 µM, first compound 10 µM
[24] = second compound 31.6 µM, first compound 0.0316 µM
[25] = second compound 31.6 µM, first compound 0.1 µM
[26] = second compound 31.6 µM, first compound 0.316 µM
[27] = second compound 31.6 µM, first compound 1 µM
[28] = second compound 31.6 µM, first compound 3.16 µM
[29] = second compound 31.6 µM, first compound 10 µM
[30] = second compound 100 µM, first compound 0.0316 µM
[31] = second compound 100 µM, first compound 0.1 µM
[32] = second compound 100 µM, first compound 0.316 µM
[33] = second compound 100 µM, first compound 1 µM
[34] = second compound 100 µM, first compound 3.16 µM
[35] = second compound 100 µM, first compound 10 µM
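Note: spheroids exposed to compound for 7 days before viability readout.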
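Throughout, for viability, T/C: luminescent signal taken as surrogate of viable cell content; 100% = DMSO vehicle control viability and lower means growth inhibition.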

Question: For COc1cc(C)[nH]c(=O)c1CN1CCc2c(Cl)cc(C(OC)C3COC3)c(Cl)c2C1=O (configuration not stated) + Cn1nnc2c(C(N)=O)ncn2c1=O, which IC50 [1] is on record?
Answer: > 10 µM

Question: And the IC50 [2]?
Answer: > 10 µM

Question: And the IC50 [3]?
Answer: > 10 µM

Question: And the IC50 [4]?
Answer: > 10 µM

Question: And the IC50 [5]?
Answer: > 10 µM

Question: And the viability, T/C [6]?
Answer: 98%

Question: What about the viability, T/C [7] of the same molecule?
Answer: 89.7%

Question: And the viability, T/C [8]?
Answer: 96.8%

Question: And the viability, T/C [9]?
Answer: 93.3%

Question: And the viability, T/C [10]?
Answer: 89%

Question: What about the viability, T/C [11] of the same molecule?
Answer: 90.7%

Question: And the viability, T/C [12]?
Answer: 105%

Question: What about the viability, T/C [13] of the same molecule?
Answer: 100%

Question: What about the viability, T/C [14] of the same molecule?
Answer: 96.5%

Question: What about the viability, T/C [15] of the same molecule?
Answer: 91.9%

Question: And the viability, T/C [16]?
Answer: 86.9%

Question: What about the viability, T/C [17] of the same molecule?
Answer: 93.3%

Question: And the viability, T/C [18]?
Answer: 102%

Question: What about the viability, T/C [19] of the same molecule?
Answer: 99.6%

Question: What about the viability, T/C [20] of the same molecule?
Answer: 90.1%

Question: And the viability, T/C [21]?
Answer: 89.6%

Question: What about the viability, T/C [22] of the same molecule?
Answer: 89.9%

Question: What about the viability, T/C [23] of the same molecule?
Answer: 93%

Question: What about the viability, T/C [24] of the same molecule?
Answer: 102%

Question: What about the viability, T/C [25] of the same molecule?
Answer: 97.4%

Question: What about the viability, T/C [26] of the same molecule?
Answer: 93.3%

Question: And the viability, T/C [27]?
Answer: 89.8%

Question: What about the viability, T/C [28] of the same molecule?
Answer: 90.7%

Question: And the viability, T/C [29]?
Answer: 96.1%

Question: What about the viability, T/C [30] of the same molecule?
Answer: 95%

Question: And the viability, T/C [31]?
Answer: 99.9%

Question: And the viability, T/C [32]?
Answer: 87.7%

Question: What about the viability, T/C [33] of the same molecule?
Answer: 83.9%

Question: And the viability, T/C [34]?
Answer: 87%

Question: And the viability, T/C [35]?
Answer: 83.5%

Question: [2H]c1nc(C)nc([2H])c1-c1cc(NC[C@@H](C)c2cccc3c(C(=O)NC)ccnc23)ncn1 + Cn1nnc2c(C(N)=O)ncn2c1=O was tested. Which IC50 [1] did it give?
Answer: > 10 µM

Question: And the IC50 [2]?
Answer: > 10 µM

Question: And the IC50 [3]?
Answer: > 10 µM

Question: And the IC50 [4]?
Answer: > 10 µM

Question: And the IC50 [5]?
Answer: > 10 µM

Question: And the viability, T/C [6]?
Answer: 104%

Question: And the viability, T/C [7]?
Answer: 103%

Question: And the viability, T/C [8]?
Answer: 106%

Question: And the viability, T/C [9]?
Answer: 97.6%

Question: And the viability, T/C [10]?
Answer: 99.5%

Question: And the viability, T/C [11]?
Answer: 101%

Question: And the viability, T/C [12]?
Answer: 106%

Question: What about the viability, T/C [13] of the same molecule?
Answer: 93.9%

Question: And the viability, T/C [14]?
Answer: 99.3%

Question: And the viability, T/C [15]?
Answer: 106%

Question: And the viability, T/C [16]?
Answer: 107%

Question: What about the viability, T/C [17] of the same molecule?
Answer: 99.3%

Question: And the viability, T/C [18]?
Answer: 101%

Question: And the viability, T/C [19]?
Answer: 100%

Question: What about the viability, T/C [20] of the same molecule?
Answer: 99.7%

Question: What about the viability, T/C [21] of the same molecule?
Answer: 104%

Question: What about the viability, T/C [22] of the same molecule?
Answer: 103%

Question: What about the viability, T/C [23] of the same molecule?
Answer: 105%

Question: What about the viability, T/C [24] of the same molecule?
Answer: 106%

Question: And the viability, T/C [25]?
Answer: 103%

Question: What about the viability, T/C [26] of the same molecule?
Answer: 102%

Question: And the viability, T/C [27]?
Answer: 103%

Question: What about the viability, T/C [28] of the same molecule?
Answer: 98.8%

Question: And the viability, T/C [29]?
Answer: 106%

Question: And the viability, T/C [30]?
Answer: 99.7%

Question: And the viability, T/C [31]?
Answer: 103%

Question: And the viability, T/C [32]?
Answer: 97.7%

Question: What about the viability, T/C [33] of the same molecule?
Answer: 98.2%

Question: What about the viability, T/C [34] of the same molecule?
Answer: 97.6%

Question: What about the viability, T/C [35] of the same molecule?
Answer: 94.4%

Question: What does the source list for [2H]c1nc(C)nc([2H])c1-c1cc(NC[C@@H](C)c2cccc3c(C(=O)NC)ccnc23)ncn1 + CC[C@@]1(O)C(=O)OCc2c1cc1n(c2=O)Cc2cc3c(CN(C)C)c(O)ccc3nc2-1?
Answer: IC50 (curve of first compound, second compound 0.003 µM): > 10 µM; IC50 (curve of first compound, second compound 0.00949 µM): > 10 µM; IC50 (curve of first compound, second compound 0.03 µM): < 0.0316 µM; IC50 (curve of first compound, second compound 0.0949 µM): < 0.0316 µM; IC50 (curve of first compound, second compound 0.3 µM): < 0.0316 µM; viability, T/C (second compound 0.003 µM, first compound 0.0316 µM): 101%; viability, T/C (second compound 0.003 µM, first compound 0.1 µM): 109%; viability, T/C (second compound 0.003 µM, first compound 0.316 µM): 111%; viability, T/C (second compound 0.003 µM, first compound 1 µM): 107%; viability, T/C (second compound 0.003 µM, first compound 3.16 µM): 96.2%; viability, T/C (second compound 0.003 µM, first compound 10 µM): 105%; viability, T/C (second compound 0.00949 µM, first compound 0.0316 µM): 104%; viability, T/C (second compound 0.00949 µM, first compound 0.1 µM): 108%; viability, T/C (second compound 0.00949 µM, first compound 0.316 µM): 99.1%; viability, T/C (second compound 0.00949 µM, first compound 1 µM): 106%; viability, T/C (second compound 0.00949 µM, first compound 3.16 µM): 110%; viability, T/C (second compound 0.00949 µM, first compound 10 µM): 109%; viability, T/C (second compound 0.03 µM, first compound 0.0316 µM): 32%; viability, T/C (second compound 0.03 µM, first compound 0.1 µM): 31.6%; viability, T/C (second compound 0.03 µM, first compound 0.316 µM): 47.8%; viability, T/C (second compound 0.03 µM, first compound 1 µM): 10.1%; viability, T/C (second compound 0.03 µM, first compound 3.16 µM): 15.7%; viability, T/C (second compound 0.03 µM, first compound 10 µM): 4.42%; viability, T/C (second compound 0.0949 µM, first compound 0.0316 µM): 1.07%; viability, T/C (second compound 0.0949 µM, first compound 0.1 µM): 0.66%; viability, T/C (second compound 0.0949 µM, first compound 0.316 µM): 0.37%; viability, T/C (second compound 0.0949 µM, first compound 1 µM): 0.51%; viability, T/C (second compound 0.0949 µM, first compound 3.16 µM): 0.49%; viability, T/C (second compound 0.0949 µM, first compound 10 µM): 0.51%; viability, T/C (second compound 0.3 µM, first compound 0.0316 µM): 0.91%; viability, T/C (second compound 0.3 µM, first compound 0.1 µM): 0.5%; viability, T/C (second compound 0.3 µM, first compound 0.316 µM): 0.31%; viability, T/C (second compound 0.3 µM, first compound 1 µM): 0.64%; viability, T/C (second compound 0.3 µM, first compound 3.16 µM): 0.57%; viability, T/C (second compound 0.3 µM, first compound 10 µM): 0.57%

Question: Which viability, T/C (compound 0.00949 µM) does the source give for CNCc1ccc(-c2cc(-c3nc(-c4ccc(S(=O)(=O)C(C)C)cc4)cnc3N)on2)cc1 here?
Answer: 103% (2×) and 109%

Question: What about the viability, T/C (compound 0.03 µM) of the same molecule?
Answer: 108% and 117% and 107%

Question: And the viability, T/C (compound 0.0949 µM)?
Answer: 110% and 112% and 105%

Question: And the viability, T/C (compound 0.3 µM)?
Answer: 107% and 103% (2×)

Question: And the viability, T/C (compound 0.949 µM)?
Answer: 0.28% and 0.55% and 0.27%

Question: What about the viability, T/C (compound 3 µM) of the same molecule?
Answer: 0.18% and 0.53% and 0.23%

Question: What about the IC50 (curve of compound) of the same molecule?
Answer: 0.555 µM and 0.545 µM and 0.542 µM
